From article PMC3060972 (Peptides, 2011)

Columns and labels:
[1] = system: E. coli; assay: Radial diffusion assay; format: cell-based; conditions: qualitative comparison with wild type BF2
[2] = system: E. coli; assay: Membrane permeability by propidium iodide; format: cell-based; conditions: qualitative comparison with wild type BF2; PI uptake in E. coli

Sequence | ANTIMICROBIAL ACTIVITY compared to wild type [1] | MEMBRANE PERMEABILIZATION compared to wild type [2]
TRSSRAGLQFAVGRPHRLLRK [P11A/V15P] | LOWER | SIMILAR
TRSSRAPLQFAVGRVHRLLRK [P11A/G7P] | SIMILAR | HIGHER
TRSSRAGLQFAVGRVHRLLRK [P11A] | LOWER | HIGHER
TRSSRAGLQFAPGRVHRLLRK [P11A/V12P] | LOWER | SIMILAR
